Patent US11292801B2, “Calpain modulators and therapeutic uses thereof” (Blade Therapeutics, Inc., priority 2016, dated 2022)

Assays:
Human Calpain 1/NS1 = target: T1, Human Calpain 1/NS1 (Homo sapiens, UniProt P07384); assay: Biochemical inhibition of calpain 1, continuous fluorescence (FRET substrate) assay; details: mean, read-out: Human Calpain 1/NS1 IC50 (nM)_MEAN
T1 sequence (P07384 1-714): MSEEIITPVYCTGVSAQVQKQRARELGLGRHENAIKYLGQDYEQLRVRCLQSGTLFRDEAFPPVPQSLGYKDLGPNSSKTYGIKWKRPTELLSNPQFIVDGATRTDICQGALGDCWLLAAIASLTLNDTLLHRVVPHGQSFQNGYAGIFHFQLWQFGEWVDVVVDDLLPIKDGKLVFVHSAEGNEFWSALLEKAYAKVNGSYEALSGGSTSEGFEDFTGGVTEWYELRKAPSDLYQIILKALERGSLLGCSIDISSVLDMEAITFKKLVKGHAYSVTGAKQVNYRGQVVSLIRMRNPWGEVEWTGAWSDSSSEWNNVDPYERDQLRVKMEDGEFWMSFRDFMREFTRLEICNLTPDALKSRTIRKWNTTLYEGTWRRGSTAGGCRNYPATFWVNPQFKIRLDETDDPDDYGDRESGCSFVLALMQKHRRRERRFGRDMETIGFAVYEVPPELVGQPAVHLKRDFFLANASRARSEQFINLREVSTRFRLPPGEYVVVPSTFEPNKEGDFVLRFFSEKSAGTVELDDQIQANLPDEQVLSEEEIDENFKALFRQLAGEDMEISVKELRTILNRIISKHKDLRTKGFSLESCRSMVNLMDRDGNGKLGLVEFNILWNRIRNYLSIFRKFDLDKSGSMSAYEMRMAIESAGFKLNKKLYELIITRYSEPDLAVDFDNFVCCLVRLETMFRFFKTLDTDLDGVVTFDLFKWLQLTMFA
T1 sequence (P04632 1-268 partner): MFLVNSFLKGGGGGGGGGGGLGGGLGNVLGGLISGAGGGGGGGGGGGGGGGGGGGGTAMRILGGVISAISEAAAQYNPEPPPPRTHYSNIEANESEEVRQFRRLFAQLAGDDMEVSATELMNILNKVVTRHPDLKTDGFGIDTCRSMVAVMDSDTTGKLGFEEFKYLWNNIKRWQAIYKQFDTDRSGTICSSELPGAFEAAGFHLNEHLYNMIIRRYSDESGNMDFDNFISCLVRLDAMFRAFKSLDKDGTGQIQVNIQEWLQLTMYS
How it was run: (§1)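 IC50 values come from 4-parameter fits of progress-curve rates (1-5 min slopes) against log inhibitor concentration. Calpain and inhibitor premixed at ambient 25C in Tris pH ~7.5/NaCl/DTT buffer, then CaCl2 and FRET substrate added to activate; 5-FAM fluorescence (ex 490/em 520) followed 10 min.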

Human Calpain 2/NS1 = target: T2, Human Calpain 2/NS1 (Homo sapiens, UniProt P17655); assay: Biochemical inhibition of calpain 2, continuous fluorescence (FRET substrate) assay; details: mean, read-out: Human Calpain 2/NS1 IC50 (nM)_MEAN
T2 sequence (P17655 1-700): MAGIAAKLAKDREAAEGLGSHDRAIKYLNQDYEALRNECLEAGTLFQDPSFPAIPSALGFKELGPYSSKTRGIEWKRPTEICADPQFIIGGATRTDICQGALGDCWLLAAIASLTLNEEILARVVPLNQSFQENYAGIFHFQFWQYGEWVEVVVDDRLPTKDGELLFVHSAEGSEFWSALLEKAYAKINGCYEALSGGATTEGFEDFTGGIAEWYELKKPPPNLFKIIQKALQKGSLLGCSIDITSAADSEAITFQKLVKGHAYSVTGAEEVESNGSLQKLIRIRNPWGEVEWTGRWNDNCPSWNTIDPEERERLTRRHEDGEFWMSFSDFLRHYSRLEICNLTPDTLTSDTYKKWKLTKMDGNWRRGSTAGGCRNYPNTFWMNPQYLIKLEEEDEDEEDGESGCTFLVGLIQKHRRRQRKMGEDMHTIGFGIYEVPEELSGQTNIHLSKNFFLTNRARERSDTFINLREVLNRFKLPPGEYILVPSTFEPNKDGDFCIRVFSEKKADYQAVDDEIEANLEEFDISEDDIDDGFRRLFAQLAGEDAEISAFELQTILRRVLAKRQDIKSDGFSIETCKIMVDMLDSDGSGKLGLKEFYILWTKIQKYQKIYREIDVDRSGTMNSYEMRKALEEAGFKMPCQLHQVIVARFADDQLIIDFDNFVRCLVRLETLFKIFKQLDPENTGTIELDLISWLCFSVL
T2 sequence (P04632 1-268 partner): T1 sequence (P04632 1-268 partner)
How it was run: as §1

Human Calpain 9/NS1 = target: T3, Human Calpain 9/NS1 (Homo sapiens, UniProt O14815); assay: Biochemical inhibition of calpain 9, continuous fluorescence (FRET substrate) assay; details: mean, read-out: Human Calpain 9/NS1 IC50 (nM)_MEAN
T3 sequence (O14815 1-690): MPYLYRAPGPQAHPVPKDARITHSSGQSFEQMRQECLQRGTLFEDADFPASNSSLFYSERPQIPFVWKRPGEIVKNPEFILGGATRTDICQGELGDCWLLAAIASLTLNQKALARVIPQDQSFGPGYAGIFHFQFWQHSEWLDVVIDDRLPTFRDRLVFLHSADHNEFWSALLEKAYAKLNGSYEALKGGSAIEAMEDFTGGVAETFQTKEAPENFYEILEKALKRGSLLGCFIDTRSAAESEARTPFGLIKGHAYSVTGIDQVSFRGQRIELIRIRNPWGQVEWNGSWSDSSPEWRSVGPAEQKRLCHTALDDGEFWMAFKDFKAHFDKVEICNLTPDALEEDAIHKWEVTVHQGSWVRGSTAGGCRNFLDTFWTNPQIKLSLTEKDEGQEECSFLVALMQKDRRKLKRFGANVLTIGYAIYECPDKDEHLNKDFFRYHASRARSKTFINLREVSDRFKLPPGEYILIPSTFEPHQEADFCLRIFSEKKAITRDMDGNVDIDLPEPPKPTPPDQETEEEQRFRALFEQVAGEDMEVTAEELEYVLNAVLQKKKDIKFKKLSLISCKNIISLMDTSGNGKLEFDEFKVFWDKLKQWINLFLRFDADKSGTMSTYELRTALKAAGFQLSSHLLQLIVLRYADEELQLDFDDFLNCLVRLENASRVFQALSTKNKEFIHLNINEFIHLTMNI
T3 sequence (P04632 1-268 partner): T1 sequence (P04632 1-268 partner)
How it was run: as §1

SMILES	IC50 (Human Calpain 1/NS1)	IC50 (Human Calpain 2/NS1)	IC50 (Human Calpain 9/NS1)
Cc1cccc(Cl)c1CNC(=O)C(=O)C1CCCCOCCOCc2ccccc2C(=O)N1 (stereo not drawn) [Compound 86, N-(2-chloro-6-methylbenzyl)-2-oxo-2-(12-oxo-1,3,4,6,7,8,9,10,11,12-decahydrobenzo[f][1,4]dioxa[9]azacyclotetradecin-10-yl)acetamide]	> 10000 nM	> 10000 nM	> 10000 nM
O=C[C@@H]1Cc2cccc(c2)CCCCOc2cccc(c2)-c2ncccc2C(=O)N1 [Compound 35, (S)-3-Oxo-12-oxa-4-aza-2(2,3)-pyridina-1,7(1,3)-dibenzenacyclododecaphane-5-carbaldehyde]	< 3000 nM	< 3000 nM	< 3000 nM
CCNC(=O)C(=O)[C@@H]1CCCCCCCCc2ccccc2C(=O)N1 [Compound 25, (S)—N-ethyl-2-oxo-2-(1-oxo-2,3,4,5,6,7,8,9,10,11-decahydro-1h-benzo[c][1]aza-cyclotridecin-3-yl)acetamide]	> 10000 nM	> 10000 nM	> 10000 nM
COc1ccc(CNC(=O)C(=O)C2CCCCOCCOCc3ccccc3C(=O)N2)c(OC)c1 (stereo not drawn) [Compound 99, N-(2,4-dimethoxybenzyl)-2-oxo-2-(12-oxo-1,3,4,6,7,8,9,10,11,12-decahydrobenzo[f][1,4]dioxa[9]azacyclotetradecin-10-yl)acetamide]	> 10000 nM	3000 to 10000 nM	3000 to 10000 nM
CCNC(=O)C(=O)[C@@H]1CCCCCCCCCCc2ccccc2C(=O)N1 [Compound 34, (S)—N-ethyl-2-oxo-2-(1-oxo-2,3,4,5,6,7,8,9,10,11,12,13-dodecahydro-1h-benzo[c][1]azacyclopentadecin-3-yl)acetamide]	> 10000 nM	> 10000 nM	> 10000 nM
CCCCNC(=O)C(=O)[C@@H]1C/C=C\COCCOCc2ccccc2C(=O)N1 [Compound 59, (S,Z)—N-butyl-2-oxo-2-(12-oxo-1,3,4,6,9,10,11,12-octahydrobenzo[f][1,4]dioxa[9]azacyclotetradecin-10-yl)acetamide]	> 10000 nM	> 10000 nM	< 3000 nM
NC(=O)C(=O)[C@@H]1CCCCOCCOCc2ccccc2C(=O)N1 [Compound 57, (S)-2-Oxo-2-(12-oxo-1,3,4,6,7,8,9,10,11,12-decahydrobenzo[f][1,4]dioxa[9]azacyclotetradecin-10-yl)acetamide]	3000 to 10000 nM	< 3000 nM	< 3000 nM
O=C[C@@H]1Cc2ccccc2C=CCCCCOc2ccccc2C(=O)N1 [Compound 13, (S)-19-Oxo-6,7,8,9,16,17,18,19-octahydrodibenzo[b,h][1]oxa[5]aza-cyclopentadecine-17-carbaldehyde]	3000 to 10000 nM	< 3000 nM	3000 to 10000 nM
CN(C)CCNC(=O)C(=O)C1CCCCOCCOCc2ccccc2C(=O)N1 (stereo not drawn) [Compound 110, N-(2-(dimethylamino)ethyl)-2-oxo-2-(12-oxo-1,3,4,6,7,8,9,10,11,12-decahydrobenzo[f][1,4]dioxa[9]azacyclotetradecin-10-yl)acetamide]	> 10000 nM	> 10000 nM	3000 to 10000 nM
C[C@@H](NC(=O)C(=O)C1CCCCOCCOCc2ccccc2C(=O)N1)c1cccnc1 (stereo partly drawn) [Compound 127, 2-Oxo-2-(12-oxo-1,3,4,6,7,8,9,10,11,12-decahydrobenzo[f][1,4]dioxa[9]aza-cyclotetradecin-10-yl)-N—((R)-1-(pyridin-3-yl)ethyl)acetamide]	> 10000 nM	> 10000 nM	> 10000 nM
O=C(NCc1ccc(Cl)cc1Cl)C(=O)C1CCCCOCCOCc2ccccc2C(=O)N1 (stereo not drawn) [Compound 96, N-(2,4-dichlorobenzyl)-2-oxo-2-(12-oxo-1,3,4,6,7,8,9,10,11,12-decahydrobenzo[f][1,4]dioxa[9]azacyclotetradecin-10-yl)acetamide]	> 10000 nM	> 10000 nM	3000 to 10000 nM
O=C(NCc1cccc(OC(F)(F)F)c1)C(=O)C1CCCCOCCOCc2ccccc2C(=O)N1 (stereo not drawn) [Compound 120, 2-Oxo-2-(12-oxo-1,3,4,6,7,8,9,10,11,12-decahydrobenzo[f][1,4]dioxa[9]aza-cyclotetradecin-10-yl)-N-(3-(trifluoromethoxy)benzyl)acetamide]	> 10000 nM	> 10000 nM	< 3000 nM
O=C[C@@H]1Cc2cccc(c2)CCCOCc2ccccc2C(=O)N1 [Compound 32, (S)-2-Oxo-10-oxa-3-aza-1(1,2),6(1,3)-dibenzena-cycloundecaphane-4-carbaldehyde]	< 3000 nM	< 3000 nM	< 3000 nM
NC(=O)C(O)[C@@H]1CCCCCOc2ccnc(n2)-c2ccccc2C(=O)N1 (stereo partly drawn) [Compound 147]	> 10000 nM	> 10000 nM	> 10000 nM
C[C@H](NC(=O)C(=O)C1CCCCOCCOCc2ccccc2C(=O)N1)c1cccnc1 (stereo partly drawn) [Compound 126, 2-Oxo-2-(12-oxo-1,3,4,6,7,8,9,10,11,12-decahydrobenzo[f][1,4]dioxa[9]aza-cyclotetradecin-10-yl)-N—((S)-1-(pyridin-3-yl)ethyl)acetamide]	> 10000 nM	> 10000 nM	> 10000 nM
CN(C)c1ccc(CNC(=O)C(=O)C2CCCCOCCOCc3ccccc3C(=O)N2)cc1 (stereo not drawn) [Compound 113, N-(4-(dimethylamino)benzyl)-2-oxo-2-(12-oxo-1,3,4,6,7,8,9,10,11,12-decahydrobenzo[f][1,4]dioxa[9]azacyclotetradecin-10-yl)acetamide]	> 10000 nM	> 10000 nM	< 3000 nM
O=C(NCCN1CCOCC1)C(=O)C1CCCCOCCOCc2ccccc2C(=O)N1 (stereo not drawn) [Compound 80, N-(2-morpholinoethyl)-2-oxo-2-(12-oxo-1,3,4,6,7,8,9,10,11,12-decahydrobenzo[f][1,4]dioxa[9]azacyclotetradecin-10-yl)acetamide]	> 10000 nM	> 10000 nM	> 10000 nM
O=C(NCc1ccccn1)C(=O)C1CCCCOCCOCc2ccccc2C(=O)N1 (stereo not drawn) [Compound 94, 2-Oxo-2-(12-oxo-1,3,4,6,7,8,9,10,11,12-decahydrobenzo[f][1,4]dioxa[9]aza-cyclotetradecin-10-yl)-N-(pyridin-2-ylmethyl)acetamide]	> 10000 nM	> 10000 nM	< 3000 nM
